Source: BindingDB's records for doi:10.1016/0960-894X(96)00356-3 (1996)
pKi: −log10 of the molar value.

The compounds below were run against Tissue alpha-L-fucosidase (Bos taurus) (assay: Compound was tested for the inhibitory activity against alpha-L-fucosidase from bovine epididymis).

pKi | SMILES
3.93 | CC1SC(Oc2ccc([N+](=O)[O-])cc2)C(O)C(O)C1O [(3R,4S,5S)-2-Methyl-6-(4-nitro-phenoxy)-tetrahydro-thiopyran-3,4,5-triol]
3.16 | COC1SC(C)C(O)C(O)C1O [(3S,4S,5R)-2-Methoxy-6-methyl-tetrahydro-thiopyran-3,4,5-triol]
3.39 | CC1SC(OP(=O)(O)O)C(O)C(O)C1O [Sodium; Phosphoric acid mono-((3S,4S,5R)-3,4,5-trihydroxy-6-methyl-tetrahydro-thiopyran-2-yl) ester]
4.48 | CC1SC(OP(=O)(O)OCc2ccccc2)C(O)C(O)C1O (stereo unspecified) [Sodium; benzyl 3,4,5-trihydroxy-6-methyltetrahydro-2H-thiopyran-2-yl hydrogen phosphate]
2.64 | CSC1SC(C)C(O)C(O)C1O [(3R,4S,5S)-2-Methyl-6-methylsulfanyl-tetrahydro-thiopyran-3,4,5-triol]
5.48 | CC1SC(Sc2ccc([N+](=O)[O-])cc2)C(O)[C@H](O)C1O (stereo partly drawn) [(R)-2-Methyl-6-(4-nitro-phenylsulfanyl)-tetrahydro-thiopyran-3,4,5-triol]
